Results from patent US10471030B2, “Immunomodulatory and differentiating function selective retinoid and rexinoid compounds in combination with immune modulators for cancer immunotherapy” (Io Therapeutics, Inc., priority 2017, dated 2019).

Tests used:
[1] = system: MM cell lines and MM CD138+ primary cells; test: BTZ sensitivity of MM cells, clonogenic or cellular recovery, liquid or BM stroma; assay type: cell-based, human; details: BM stroma with 1 μM test agent for 5 days, then BTZ 2.5 nM for 48 hr
Description: (§1) 24-well plates were coated with 0.1% gelatin in PBS for 30 min at 37° C. The gelatin solution was removed, and the stromal cells were cultured overnight at a density of 5×10^4 cells/well to obtain a confluent monolayer. At that time, MM cell lines or primary MM cells (1×10^5 in 2 ml) were added to the stroma cultures. The stroma cocultures were incubated at 37° C. in RPMI containing 10% FCS, L-glutamine, and P/S, with or without AGN194310 (1 μM for 5 days), R115866 (1 μM for 5 days), IRX5183 (1 μM for 5 days), or BTZ (2.5 nM for 48 hr).
MM cells were separated from BM stromal cells by gently pipetting several times around the well. Detached cells were centrifuged, resuspended in fresh media, and incubated in a 24-well plate for 1 hr at 37° C. During this short incubation period, contaminating stromal cells attached to the well, while MM cells remained in suspension. MM cells were then recovered by gently pipetting. This protocol was used for qRT-PCR and CFU coculture experiments. The purity achieved using this protocol was confirmed by flow cytometry to be 98%-99% MM cells and less than 2% contaminating stroma.
After treatment, MM cells were collected, washed with PBS, and plated at a density of 5,000 cells/ml in 1 ml of 1.32% methylcellulose supplemented with 30% FBS, 10% BSA, L-glutamine, P/S, and 0.1 mM β-ME. Cells were plated in triplicate in 35-mm culture dishes, incubated at 37° C., and scored for the presence of colonies 14 days later.
To determine whether decreased retinoid signaling contributes to BTZ resistance within the BM niche, MM cell lines and MM CD138+ primary cells were incubated with BM stroma for 5 days, followed by BTZ treatment.
Strategies to overcome microenvironment-dependent chemoprotection have focused on mobilization of cancer cells from the BM niche into the peripheral circulation. It was analyzed whether the change in phenotype and subsequent BTZ resistance of MM cells were lost upon separation from the BM stroma, a process that mimics mobilization. To this end, H929 cells were separated from BM mesenchymal cells following a 5-day stroma co-culture, incubated in fresh media (RPMI with 10% FBS) for 0 to 48 hr, and then treated with BTZ. […] Thus, microenvironment-dependent BTZ resistance induced by the change in MM cell phenotype may not immediately be reversed by tumor mobilization.

OCI-AML3 cells = test: CFU experiments off and on stroma, OCI-AML3 cells; assay type: cell-based; details: 10^−6 M ATRA, IRX5183, or 10^−7 M AM80
Source text: (§2) Data across three independent experiments.

NB4 cells = test: CFU experiments off and on stroma, NB4 cells; assay type: cell-based; details: 10^−7 M ATRA, IRX5183, or 10^−8 M AM80
Source text: as §2

RARα = test: transactivation assay, agonist activity; assay type: cell-based; details: RARα versus RARβ, RARγ; FIG. 1
Source text: Transactivation assays employ expression plasmids encoding the full length receptors RARα, RARβ, and RAR ? . Reporter plasmids containing the herpes virus thymidine kinase promoter and the appropriate retinoic acid receptor response element (RAREs) are positioned upstream of an open coding region encoding firefly luciferase.

[2] = system: Naive CD4+ CD25− FoxP3− cells; test: Treg cell differentiation from naive T cells in vitro (FoxP3-GFP, flow cytometry); assay type: cell-based, mouse; details: 10 nM
Description: To determine whether a RARα agonist could affect T cell differentiation, T cells were incubated with a RARα agonist to determine its effect on Foxp3 expression. Naive CD4^+ CD25^− FoxP3^− cells were purified from a Foxp3-GFP mouse using flow cytometry by sorting and isolating based upon a GFP^− phenotype. These cells were activated polyclonally with αCD3 in vitro in the presence of IL-2 and TGF-β. These cells were then cultured in media with various concentrations of compound IRX5183 (a RARα agonist) and the expression of FoxP3-GFP was analyzed by flow cytometry. The RARα agonist compound IRX5183 enhanced differentiation of immunosuppressive Treg cells and inhibited differentiation of inflammatory TH17 cells from naïve T cells in vitro (Table 2).

Kasumi-1 cells = test: CFU experiments off and on stroma, Kasumi-1 cells; assay type: cell-based; details: 10^−6 M ATRA, IRX5183, or 10^−7 M AM80
Source text: as §2

[3] = system: H929 luciferase+ (Luc+) cells; test: systemic MM xenograft, bioluminescence; assay type: in vivo, NSG mice; details: 4 weeks
Description: For the systemic MM model, 2×10^6 Luc+/GFP+ H929 cells were injected via the tail vein into 16-week-old male NSG mice. After engraftment, as determined by an exponential increase in bioluminescence, mice were treated with BTZ (0.5 mg/kg i.p.) twice weekly and with IRX (10 mg/kg) once daily. Tumor burden was assessed by bioluminescence, as above.
To test whether retinoids can enhance BTZ activity in MM, a systemic MM xenograft was developed by injecting 2×10^6 H929 luciferase+ (Luc+) cells via the tail vein of non-obese, diabetic, severe combined immunodeficiency IL-2 receptor γ-KO (NSG) mice. The animals were randomized to receive IRX, BTZ, or a combination of both, and disease burden was followed weekly by bioluminescence imaging (FIG. 6).

MM cells = test: surface CD138 expression of MM cells (flow cytometry); assay type: cell-based, human; details: BM stromal cell co-cultures, 1 μM
Description: as §1
Following treatment, MM cells were collected, washed with PBS, and stained for 15 min at room temperature with phycoerythrin-conjugated (PE-conjugated) anti-CD138. Cells were washed to remove unbound antibody and evaluated in a FACSCalibur system (BD Biosciences). Stromal cells were identified by GFP expression, and viable cells were identified using 7-aminoactinomycin D (7-AAD). To calculate cell numbers, live GFP-cells were normalized to calibration beads.
Expression of CD138 is a hallmark of normal PC differentiation as well MM PCs.

For `CC1(C)CCC(C)(C)c2c1cc(C(=O)Nc1cc(F)c(C(=O)O)c(F)c1)c(O)c2Cl` [IRX5183], the “stroma-induced BTZ resistance” value [1] was “overcome”, the “clonogenic growth (CFU)” value (OCI-AML3 cells) was “decrease in clonogenic growth compared to control” and the “clonogenic growth (CFU)” value (NB4 cells) was “decrease in clonogenic growth compared to control”. For the same compound, the “agonist activity, activation of transcription” value (RARα) was “specifically activates RARα”, the “Treg cell Percent Differentiation (%)” value [2] was 90% and the “clonogenic growth (CFU)” value (Kasumi-1 cells) was “decrease in clonogenic growth compared to control”. For the same compound, the “disease burden (bioluminescence)” value ([3]; IRX in combination with BTZ) was “significant (P<0.01) decrease in disease burden”, the “tumor burden (bioluminescence)” value ([3]; monotherapy, BTZ 0.5 mg/kg i.p. twice weekly, IRX 10 mg/kg once daily) was “decrease in tumor burden compared with untreated mice” and the “surface CD138 expression” value (MM cells) was “restored CD138 expression”.
